For data set [1] the following is noted: in vivo.
A short description of data set [2]: Stability study of topical solution in the market container (HPLC, 30° C./65% RH). Conditions: in formulation of Example 1, two runs. The class given is physicochemical.
A further data set can be described thus: in vivo. To be noted: cat.
A short description of data set [3]: Pharmacokinetic assessment in cats after administration of the formulation of Example 1. To be noted: blood of cats; after administration of formulation of Example 1.

As for `O=C(C1CCCCC1)N1CC(=O)N2CCc3ccccc3C2C1` (stereo not drawn) [Praziquantel, praziquantel], the “time at which Cmax is reached” value in data set [1] was 6 h. Besides, the “average % label claim” value is on record as 99.52 % LC in data set [2] (time point 0 month); 97.38 % LC in data set [2] (time point 3 months); 97.74 % LC in data set [2] (time point 6 months); 98.44 % LC in data set [2] (time point 9 months); 98.36 % LC in data set [2] (time point 12 months); 97.04 % LC in data set [2] (time point 18 months). In the data set “in vivo”, this compound had a half-life of 73.9 h.

Take Eprinomectin: the “average % label claim” value in data set [2] (time point 0 month) stood at 99.33 % LC; in data set [2] (time point 3 months), 97.92 % LC; in data set [2] (time point 6 months) it was 97.61 % LC; in data set [2] (time point 9 months), 98.40 % LC; in data set [2] (time point 12 months), 98.50 % LC; in data set [2] (time point 18 months), 96.48 % LC. In data set [3], this compound came in with a terminal half-life of 114 h.

In general, half-life refers to the time needed for the level to fall by half in the phase considered.

These data come from patent US11583545B2, “Parasiticidal compositions comprising eprinomectin and praziquantel, methods and uses thereof” (BOEHRINGER INGELHEIM ANIMAL HEALTH USA INC., priority 2018, dated 2023).
